# Entries after “also recorded” stand apart in the source; their conditions may differ. Like-named read-outs stand apart in the source and are kept apart here.
# Assays:
# hPMVEC = tested on: hPMVEC; parameters: method as in PMID 21421750; conditions: cited from earlier work
# [1] = Body weight and temperature of Streptococcus pneumoniae-infected mice; conditions: VT i.v. (500 ng in Figure S2), 46 h p.i. in Figure S2, vs infected, PBS-treated
# [2] = tested on: human immunoglobulin G (IgG) Fc; test: Tryptophan fluorescence spectroscopy, VT with human IgG Fc (specificity control); type: binding; conditions: recombinant human IgG Fc
# Procedure: (§1) Binding studies were carried out in 96 well plates (Brand-plates pureGrade reference 781607; BRAND GMBH + CO KG, Wertheim, Germany). Mouse Tie2Fc receptor and human immunoglobulin G (IgG) Fc were obtained from R&D Systems (Minneapolis, MN, USA). Dilutions were prepared in HyClone™ Dulbecco’s PBS (GE Healthcare Life Sciences, Mississauga, ON, Canada). The saturation binding curve was prepared with all ligand dilutions and receptors as 2× concentrations. Equal volumes of ligand and receptor were added to generate a final 1× concentration (500 nM Tie2Fc final concentration). Spectroscopic studies were performed on a SpectraMax M2 fluorometer (Molecular Devices, Sunnyvale, CA, USA). Measurements were taken at an excitation wavelength of 295 nm. Emission scans were set from 360 to 450 nm.
# [3] = tested on: Streptococcus pneumoniae-infected mice; test: BALF cytokines (multiplex assay) in Streptococcus pneumoniae-infected mice; conditions: VT 500 ng i.v., n = 8
# Procedure: For all experiments, female C57BL/6 N mice (8 to 10 weeks old, weighing 18 to 20 g; Charles River Laboratories, Sulzfeld, Germany) were used. Animals were housed under specific pathogen-free conditions under a 12–h/12-h light/dark cycle with free access to food and water.
# Mice were anesthetized with ketamine (80 mg/kg) and xylazine (25 mg/kg) and transnasally inoculated with 5 × 10^6 colony-forming units (CFU) of S. pneumoniae (NCTC7978) in 20 μl of sterile PBS as described before [35]. Sham-infected control mice received 20 μl of sterile PBS. After 22 h, 34 h, and 46 h, body weight and rectal temperature were measured, and different dosages of VT (100, 200, or 500 ng in 100 μl of PBS) or PBS were intravenously injected into the tail vein. Twenty-four or forty-eight hours postinfection (p.i.), mice were anesthetized (160 mg/kg ketamine and 75 mg/kg xylazine) and exsanguinated. […] Subsequently, lungs were flushed, and BAL was performed. To determine permeability, HSA (1 mg/75 μl) was intravenously infused 1 h before lung preparation, and the BALF/plasma ratio was calculated as described elsewhere [35]. […] Cytokines from BALF were measured with a multiplex assay (ProcartaPlex; eBioscience), and plasma levels of interleukin (IL)-6 (BD Biosciences) and KC (keratinocyte chemoattractant; R&D Systems) were quantified by ELISA.
# mouse Tie2Fc receptor = molecular target: T1, mouse Tie2Fc receptor (Mus musculus, UniProt Q02858); test: Tryptophan fluorescence spectroscopy, saturation binding of VT to mouse Tie2Fc
# T1 construct: Fc (immunoglobulin Fc fusion partner); purchased R&D Systems
# Procedure: as §1
# Saturation binding data (Fig. 1a–c) are presented as mean ± SEM and were calculated using normalized one-site specific binding and nonlinear regression. For the Tie2 phosphorylation analysis (Fig. 1d), one-way analysis of variance (with Dunnett’s post hoc multiple comparisons test) was used to compare treatment groups with the vehicle-treated group. All other experimental data are expressed as mean, mean + SEM, or mean ± SEM. Groups were compared using the Mann-Whitney U test followed by the Bonferroni-Holm correction, where indicated. p Values < 0.05 were considered significant. Analyses were performed using Prism version 6.00 software (GraphPad Software, La Jolla, CA, USA).
# [4] = tested on: mice with influenza pneumonia; conditions: cited from earlier work
# Tie2 = Tie2 phosphorylation in mouse primary lung microvascular endothelial cells (phospho-Tie2 ELISA); type: cell-based; conditions: VT 1, 10, 100, 1000 ng/ml, 15 minutes, serum-containing media; phospho-Tie2 and total Tie2 ELISA; n = 3-6
# Procedure: C57BL/6 mouse primary lung microvascular endothelial cells (Cell Biologics, Chicago, IL, USA) were grown in endothelial cell medium with a kit (Cell Biologics) in 20% O2/5% CO2 in a 37 °C humidified chamber and split 1:2 once reaching 90–95% confluency. To examine the activation of Tie2 by VT in mouse primary lung microvascular endothelial cells, 95–100% confluent cells were stimulated with VT (1, 10, 100, and 1000 ng/ml) in serum-containing media for 15 minutes. Human Ang-1 (R&D Systems) was used as a positive control. VT was synthesized, purified, and validated as described before. Cell lysates were collected using lysis buffer recommended in the mouse phospho-Tie-2 enzyme-linked immunosorbent assay (ELISA) kit (R&D Systems); tyrosine-phosphorylated Tie2 and total Tie2 were measured using ELISA kits (mouse phospho-Tie2 and total-Tie2 ELISA kits; R&D Systems). Three to six independent experiments were analyzed.
# Saturation binding data (Fig. 1a–c) are presented as mean ± SEM and were calculated using normalized one-site specific binding and nonlinear regression. For the Tie2 phosphorylation analysis (Fig. 1d), one-way analysis of variance (with Dunnett’s post hoc multiple comparisons test) was used to compare treatment groups with the vehicle-treated group. All other experimental data are expressed as mean, mean + SEM, or mean ± SEM. […]
# mouse lungs = test: Isolated perfused and ventilated mouse lung, PLY-induced permeability (ex vivo); parameters: species or system mouse (C57BL/6 N); conditions: VT 50 or 100 ng/ml, 15 minutes before PLY 1.4 μg/ml, BAL 30 minutes after PLY, HSA 0.04% in perfusate, n = 6-8
# Procedure: Mouse lungs were prepared as described previously. Briefly, anesthetized mice were tracheotomized and ventilated. After sternotomy and cannulation of the left atrium and pulmonary artery, lungs were perfused with 37 °C sterile Krebs-Henseleit hydroxyethyl-amylopectin buffer (1 ml/minute) and ventilated by negative pressure (Pexp −4.5, Pins −9.0 cmH2O) in a humidified chamber. After a 20-minute steady state, continuous infusion of VT (50 or 100 ng/ml) or PBS was commenced. Five minutes later, human serum albumin (HSA) was admixed to the perfusate (0.04%) for permeability quantification. Ten minutes thereafter, 1.4 μg/ml PLY was infused into the pulmonary artery for 1 minute. Bronchoalveolar lavage (BAL) was performed 30 minutes after PLY application, and HSA concentration was measured in bronchoalveolar fluid (BALF).
# T1 sequence (Q02858 with tags, fused parts or gaps limits assumed): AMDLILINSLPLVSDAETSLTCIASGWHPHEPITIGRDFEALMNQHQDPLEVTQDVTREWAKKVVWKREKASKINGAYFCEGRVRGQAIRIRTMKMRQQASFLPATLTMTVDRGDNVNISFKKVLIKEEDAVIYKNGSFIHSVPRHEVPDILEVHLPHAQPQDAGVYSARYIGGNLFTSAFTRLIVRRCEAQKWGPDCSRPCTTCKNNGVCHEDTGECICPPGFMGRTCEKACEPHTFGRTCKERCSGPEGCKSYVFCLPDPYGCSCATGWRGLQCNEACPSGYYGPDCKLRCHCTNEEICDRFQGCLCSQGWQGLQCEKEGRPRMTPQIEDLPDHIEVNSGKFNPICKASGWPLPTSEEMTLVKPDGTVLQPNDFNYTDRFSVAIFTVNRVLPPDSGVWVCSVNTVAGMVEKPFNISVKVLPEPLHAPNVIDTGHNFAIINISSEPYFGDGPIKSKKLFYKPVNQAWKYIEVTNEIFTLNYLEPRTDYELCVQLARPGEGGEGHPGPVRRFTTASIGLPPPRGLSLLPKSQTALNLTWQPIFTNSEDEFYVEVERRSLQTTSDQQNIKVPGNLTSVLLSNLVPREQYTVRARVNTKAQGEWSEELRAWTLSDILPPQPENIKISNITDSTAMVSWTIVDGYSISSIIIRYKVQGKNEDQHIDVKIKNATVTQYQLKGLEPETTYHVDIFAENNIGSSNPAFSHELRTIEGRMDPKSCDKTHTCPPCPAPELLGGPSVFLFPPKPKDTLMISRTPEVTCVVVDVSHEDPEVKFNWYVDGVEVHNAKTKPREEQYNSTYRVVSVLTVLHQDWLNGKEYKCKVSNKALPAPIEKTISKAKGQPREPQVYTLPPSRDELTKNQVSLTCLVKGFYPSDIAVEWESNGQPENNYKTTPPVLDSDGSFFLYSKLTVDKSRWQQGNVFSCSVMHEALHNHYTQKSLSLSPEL
substance,measurement,setting,value
Vasculotide [VT],protection of endothelial cells from LPS-induced disruption,hPMVEC,protects hPMVEC after LPS stimulation; also recorded: protect endothelial cells from lipopolysaccharide (LPS)-induced disruption
same,body weight,[1],did not influence; also recorded: not affected
same,body temperature,[1]; rectal,did not influence; also recorded: not affected
same,fluorescence intensity / binding with human IgG Fc,[2],No saturation of binding is observed; also recorded: no dose-dependent increase in fluorescence intensity
same,BALF cytokine concentrations (except IL-12p40),[3]; 24 h and 48 h p.i.,not significantly affected; also recorded: not significantly reduced
same,"IL-12p40 levels in BALF, 48 h p.i.",[3]; 48 h p.i.,reduced; also recorded: decreased
same,saturability of fluorescence intensity with mouse Tie2Fc,mouse Tie2Fc receptor; 500 nM Tie2Fc,saturable
same,intrinsic fluorescence intensity / binding with mouse Tie2Fc,"mouse Tie2Fc receptor; 500 nM Tie2Fc, excitation 295 nm",dose-dependent binding; also recorded: dose-dependent increase in intrinsic fluorescence intensity
same,Kd,"mouse Tie2Fc receptor; 95% confidence interval, 500 nM Tie2Fc, one-site specific binding, read-out: 95% CI of the dissociation constant, mouse Tie2Fc",0.00292 to 0.067 µM
same,"dissociation constant, in words","mouse Tie2Fc receptor; murine Tie2 receptor, discussion",in the low nanomolar range
same,Kd,"mouse Tie2Fc receptor; tryptophan fluorescence, excitation 295 nm, emission 360-450 nm, 500 nM Tie2Fc, PBS, normalized one-site specific binding, nonlinear regression, read-out: dissociation constant of the normalized specific binding of VT to mouse Tie2Fc",0.035 µM
same,survival of mice with influenza pneumonia,[4],increase the survival
same,leukocyte influx into the lung in influenza pneumonia,[4]; ref 28 (Sugiyama et al.),without affecting leukocyte influx into the lung
same,pulmonary barrier function in influenza pneumonia,[4]; ref 28 (Sugiyama et al.),protective effect of VT on pulmonary barrier function
same,virus replication in influenza pneumonia,[4]; ref 28 (Sugiyama et al.),without affecting leukocyte influx into the lung or repressing virus replication
same,Tie2 phosphorylation,Tie2,resulted in Tie2 phosphorylation in a dose-dependent manner; also recorded: dose-dependent phosphorylation of Tie2
same,PLY-induced lung hyperpermeability (HSA in BALF),mouse lungs,decreased PLY-induced pulmonary permeability; also recorded: significantly decreased hyperpermeability of mouse lungs; also recorded: dose-dependently decreased hyperpermeability of mouse lungs

# Reference: PMC5683375, “Vasculotide reduces pulmonary hyperpermeability in experimental pneumococcal pneumonia” (Critical Care, 2017)
